{"source": "patent US5484778A", "about": "“Phthalocyanine photosensitizers for photodynamic therapy and methods for their use” (priority 1993, dated 1996)", "key": {"V79 cells [1]": {"system": "V79 cells", "assay": "Uptake of additional phthalocyanines into V79 cells (Table 2)", "conditions": "for Uptake into V79 cells: 18 hours", "quoted_text": "V79 cells Chinese hamster lung fibroblasts were cultured using the cell culture methods described above. […] When the filters were dry, the phthalocyanines were extracted into ethanol and the absorption determined at the peak wavelength, usually 668 nm."}, "RIF-1 tumors": {"system": "RIF-1 tumors", "assay": "PDT of RIF-1 implanted tumors with PcIV and multiple exposures to light (Table 8)", "type": "in vivo, C3H/HeN mice", "conditions": "for % of Mice Surviving: 1 mg/kg", "protocol": "To overcome the regrowth, RIF-1 tumors were implanted in C3H/HeN mice, and the mice were treated with PcIV followed by multiple exposures to light. For multiple exposures to light to be successful, the tumor tissue must retain sufficient levels of the photosensitizer over the exposure period.\nThereafter, the tumors were irradiated with an argon ion pumped dye laser tuned at 675 nm for the total light dose of 135 J/cm^2 (75 mW/cm^2)."}, "[2]": {"system": "chemically-induced benign skin papillomas", "assay": "PDT of chemically induced skin tumors in SENCAR mice (FIG. 4)", "type": "in vivo", "conditions": "0.5 and 1.0 mg/kg i.p. in DPPC liposomes", "protocol": "6-week-old female SENCAR mice received a single topical application of 5 μg DMBA in 0.2 ml acetone on the dorsal skin as tumor initiator. One week later, the animals were started on twice-weekly topical applications of 1 μg TPA in 0.2 ml acetone as tumor promoter. All of the animals developed tumors at 12 weeks. Mice that developed 4-5 tumors per animal averaging 5-8 mm in diameter and 2-5 mm in thickness were used. Pc IV, entrapped in DPPC liposomes was administered intraperitoneally at doses of either 0.5 or 1.0 mg/kg and 24 hrs later the tumor area was illuminated with light from an argon pumped dye laser tuned at 675 nm for a total light dose of 135 J/cm^2 (75 mW/cm^2). All possible controls were included; either the animals were untreated, treated only with laser light or treated only with Pc IV alone."}, "[3]": {"assay": "Retention in tumor tissue (pharmacokinetics)", "conditions": "in vivo"}, "V79 cells [4]": {"system": "V79 cells", "assay": "Clonogenicity, killing of V79 cells using photodynamic therapy (Table 3)", "type": "cell-based, Chinese hamster", "outline": "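V79 Chinese hamster lung fibroblasts were loaded with 0.5 or 1.0 μM phthalocyanine, then about 18 h later irradiated with increasing doses of 675 nm broad-band red light (tungsten-halogen lamp, 600 nm high-pass filter). Recorded value is the light dose killing 90% of cells, or, failing that, the maximum kill (% survival) and its dose.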"}, "L5178Y cells": {"system": "L5178Y cells", "assay": "Induction of apoptosis (DNA fragmentation) in L5178Y-R cells (Table 6)", "type": "cell-based, mouse", "conditions": "0.4 μM", "outline": "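Exponentially growing mouse lymphoma L5178Y-R cells loaded 18 hours with phthalocyanine at various concentrations, then irradiated with >600 nm red light (up to 30 kJ/m^2, ~74 W/m^2). DNA isolated 2 hours post-PDT, run on 1.5% agarose; value is minimum PDT dose (concentration × fluence) giving visible DNA ladder.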"}}, "data": [{"smiles": "CN(C)CCC[Si](C)(C)O[Si]1(O)n2c3c4ccccc4c2N=C2N=C(N=c4c5ccccc5c(n41)=NC1=NC(=N3)c3ccccc31)c1ccccc12", "note": "(stereo not drawn) [Compound IV, HOSiPcOsi(CH3)2)(CH2)3 N(CH3)2]", "values": [{"measurement": "solubility in solvents", "setting": "Solubility", "value": "soluble in CH2 Cl2 and toluene"}, {"measurement": "uptake by V79 cells (in words)", "setting": "V79 cells [1]", "value": "taken up particulary well"}, {"measurement": "Uptake into V79 cells", "setting": "V79 cells [1]; 1 μM", "value": "0.7 ± 0.2", "unit": "n Moles/10^6 cells"}, {"measurement": "Uptake into V79 cells", "setting": "V79 cells [1]; 2 μM", "value": "3.1 ± 0.3", "unit": "n Moles/10^6 cells"}, {"measurement": "Uptake into V79 cells", "setting": "V79 cells [1]; 4 μM", "value": "4.6 ± 2.9", "unit": "n Moles/10^6 cells"}, {"measurement": "Uptake into V79 cells, composite value", "setting": "V79 cells [1]; average of all data", "value": 1.1, "unit": "n Moles/10^6 cells/μM"}, {"measurement": "Uptake (from Table 2)", "setting": "V79 cells [1]; repeated in Table 3", "value": 1.1, "unit": "n Moles/10^6 cells/μM"}, {"measurement": "% of Mice Surviving", "setting": "RIF-1 tumors; 360 h", "value": 100, "unit": "%"}, {"measurement": "% of Mice Surviving", "setting": "RIF-1 tumors; 2880 h", "value": 0, "unit": "%"}, {"measurement": "% of Mice Surviving", "setting": "RIF-1 tumors; DPPC liposomes, 30 days, exposure day 2", "value": 100, "unit": "%"}, {"measurement": "% of Mice Surviving", "setting": "RIF-1 tumors; corn oil, 15 days, exposure day 2", "value": 100, "unit": "%"}, {"measurement": "% of Mice Surviving", "setting": "RIF-1 tumors; corn oil, 15 days, exposure days 2-6", "value": 100, "unit": "%"}, {"measurement": "tumor regrowth", "setting": "RIF-1 tumors; DPPC liposomes, 30 days after PDT, irradiated only one or two times", "value": "Tumor regrowth occurred 30 days after photodynamic therapy"}, {"measurement": "tumor regrowth", "setting": "RIF-1 tumors; DPPC liposomes, 120 days after PDT, three to five exposures", "value": "No tumor regrowth occurred even at 120 days"}, {"measurement": "tumor regrowth", "setting": "RIF-1 tumors; DPPC liposomes, 300 days after light treatment", "value": "no evidence of tumor regrowth"}, {"measurement": "tumor cure", "setting": "RIF-1 tumors; DPPC liposomes, irradiated three, four or five times at 24 hour interval", "value": "complete tumor cure was evident"}, {"measurement": "tumor regrowth", "setting": "RIF-1 tumors; corn oil, 15 days after PDT, all multiple exposure protocols", "value": "regrowth of tumors was evident 15 days after photodynamic therapy in all the multiple exposure protocols"}, {"measurement": "tumor volume (eventual)", "setting": "[2]; 675 nm, 135 J/cm^2", "value": 0}, {"measurement": "tumor recurrence", "setting": "[2]; 34 days", "value": "did not return for the length of the study, 34 days"}, {"measurement": "retention in tumor tissue after administration", "setting": "[3]", "value": "≥ 7", "unit": "days"}, {"measurement": "LD 90", "setting": "V79 cells [4]; 0.5 μM, 18 h, light dose killing 90% of cells", "value": 4, "unit": "kJ/m^2"}, {"measurement": "photosensitizing activity, killing V79 cells (in words)", "setting": "V79 cells [4]; discussion of Table 3", "value": "most active at killing V79 cells"}, {"measurement": "Minimum Demonstrated Condition to induce apoptosis: C × F", "setting": "L5178Y cells", "value": 1.2, "unit": "μm × kJ/m^2"}, {"measurement": "Minimum Demonstrated Condition to induce apoptosis: Fluence", "setting": "L5178Y cells", "value": 3.0, "unit": "kJ/m^2"}]}]}
